Laboratory results: publication PMC8148066 (Acta Pharmaceutica Sinica. B, 2021)

Key:
CYP51 in gut microbiota = assay: CYP51 activity in colonic contents; format: biochemical, mice; conditions: inhibitor 8 and 20 μg/mL, 6 h, vs. Control
gut microbiota = assay: FLZ-to-M1 conversion in colonic contents with CYP51 inhibitors; format: in vitro ADME, mice; conditions: FLZ 2 μg/mL with CYP51 inhibitor 8 and 20 μg/mL, 6 h

Structure (SMILES)	Activity of CYP51 in the reaction system of colonic contents (CYP51 in gut microbiota)	Concentration of FLZ in the colonic contents (gut microbiota)	Concentration of M1 in the colonic contents (gut microbiota)	Ratio of M1/FLZ in gut microbiota (gut microbiota)
CCC(C)n1ncn(-c2ccc(N3CCN(c4ccc(OCC5COC(Cn6cncn6)(c6ccc(Cl)cc6Cl)O5)cc4)CC3)cc2)c1=O (stereo not shown) [itraconazole]	inhibited	increased	decreased	reduced
C[C@@H](c1ncncc1F)[C@](O)(Cn1cncn1)c1ccc(F)cc1F [voriconazole]	inhibited	increased	decreased	
